This note sets out measurements from article PMC11845477, “Exploring the principles behind antibiotics with limited resistance” (Nature Communications, 2025).

Assay [1] relates to E. coli ATCC25922. The experiment in a line: Dose-response killing curves (99.9% killing concentration, Hill coefficient). The format is cell-based, Escherichia coli. The following applies: dose-response killing curve. From the text:
Fig. 9 Killing kinetics of the studied antibiotics. a Bacterial survival rate in response to toxic antibiotic exposure. […] The bars indicate the survival rate (log10) compared to the untreated initial viable cell count (see “Methods”). Data are presented as mean values of 5 biological replicates ± SEM. The antibiotic group differentiation is denoted by color. […] Survival was estimated by measuring cell viability (colony-forming units/ml) of 2 biologically independent strains following a 4-hour exposure to different concentrations of 16 antibiotics on E. coli ATCC25922 (for further details, see “Methods”). The antibiotic concentration that kills 99.9% of the E. coli population is indicated as a vertical dotted line (see Supplementary Data 5). Error bars represent standard error calculated from the colony counts by Poisson’s model. A Hill function was fitted to the dose-response data from two biological replicates, producing sigmoidal curves (Supplementary Data 5). The Hill coefficient reflects how steeply the survival rate decreases in response to increasing antibiotic concentration ([…]). […] X-axis label colors indicate mode of action groups. For detailed information on antibiotic and bacterial species, see Supplementary Data 1. Source data are provided as a Source Data file.
To test the dose range under which resistance can evolve, we employed advanced microplating and automated image analysis. We quantified bacterial population survival at varying antibiotic concentrations[62] (see “Methods”) in E. coli. Briefly, we generated dose-response curves and investigated how steeply the killing effect increases as the antibiotic concentration rises. In specific, the Hill coefficient representing each bacterial strain-antibiotic combination was calculated to quantify dose-kill kinetics.
In this current study, the killing kinetics of each antibiotic was measured according to a previously established experimental protocol[62] with minor modifications. During this assay, the bacterial cultures were exposed to antibiotics in 96-well assay plates and their viability after 4 hours of exposure was quantified by two methods: i) microplating and colony counting or ii) fluorescent staining of cells and counting of the fluorescent units.
Specifically, these experiments were performed in the following steps: (1) Preparation of bacterial stocks. Single colonies from each strain were isolated and grown overnight in MHB medium at 37 °C, 160 rpm. In case of the fluorescently tagged E. coli strains, the medium was supplemented with 10 μg/mL chloramphenicol, to maintain the pZS2R plasmid. Overnight cultures were diluted 1:5000 and grown to an optical density at 600 nm (OD600) of 0.25. These cultures were concentrated by centrifugation and small aliquots of 50 μL containing ~2.2 × 10^9 cells were frozen in glycerol (stored at −80 °C). (2) Preparing assay plates with antibiotics. 96-well plates were filled with 235 μL MHB and supplemented with antibiotics using an automated digital dispenser (D300e, Tecan). In the case of SCH79797, we used minimal media. […] For testing the clearance efficacy of each antibiotic at a single lethal dose, the 10x of the MIC for each antibiotic-strain pair were prepared in at least three replicates. (3) Antibiotic exposure. During the dose response assay, frozen cultures of the E. coli strains expressing YFP and mCherry were thawed and mixed at a 1:1 ratio, diluted 1:1000 in 30 mL MHB and incubated for 45 min at 37 °C and 160 rpm. During the single-dose assay, the frozen cultures of experimental strains (E. coli, K. pneumoniae, A. baumannii) were also thawed and diluted 1:1000 in 30 mL MHB and incubated at 37 °C to reach an OD of 0.25 and 160 rpm.

In assay [2] the test system is A. baumannii ATCC 17978 (SEN) and A. baumannii ATCC BAA-1605 (MDR). The experiment in a line: Adaptive laboratory evolution (ALE), relative MIC of evolved lines. The format is cell-based, Acinetobacter baumannii. The text has this:
Using the same set of bacterial strains, we initiated adaptive laboratory evolution with the aim to maximize the level of antibiotic resistance in the populations achieved during a longer, but fixed time period.
An established protocol for adaptive laboratory evolution[46],[73] was followed to propagate populations with the highest resistance levels. Starting with an antibiotic concentration that caused approximately 50% growth inhibition, ten parallel populations for each antibiotic-ancestor strain combination were grown for 72 hours at 37 °C with continuous shaking (300 RPM). MHB broth medium was used unless stated otherwise. After each incubation, 20 µl of each culture was transferred to four new wells containing fresh medium with increasing antibiotic concentrations (0.5×, 1×, 1.5×, and 2.5× the previous concentration) in a chessboard layout to monitor potential cross-contamination. Growth was monitored by measuring OD600 using a Biotek Synergy 2 microplate reader, and only populations grown in the highest drug concentration with an OD600 > 0.2 were transferred further.
A robotic liquid handling system was used to automatically prepare a 11 to 16-step serial dilution in 384-well microtiter plates (Greiner). A final concentration of 5 × 10^5 bacterial cells per mL were inoculated into each well containing 60 µL MHB medium. Bacterial cultures were incubated at 37 °C with continuous shaking (Infors shaker, 900 rpm with 3 mm throw) for 18 hours (2 replicates from each). Cell growth was monitored by measuring the optical density (OD600 values, using Biotek Synergy microplate reader). MIC was defined as the antibiotic concentration of complete growth inhibition (i.e., OD600 < 0.05). Relative MIC was calculated as follows:1 relativeMIC=MICevolved/MICancestor […]
Supplementary Figure 4. Resistance levels following adaptive laboratory evolution across bacterial strains. The level of resistance was measured as the fold change in relative MIC between evolved and ancestral strains after ~60 days of adaptive laboratory evolution. Data are grouped by bacterial strain (A. baumannii (AB), E. coli (EC), K. pneumoniae (KP), and P. aeruginosa (PA)) and categorized as either multidrug-resistant (MDR) or sensitive (SEN). Each data point represents a laboratory evolved line, and boxplots show the median, first and third quartiles, with whiskers indicating the 5th and 95th percentiles.
Statistical analysis was performed using two-sided Dunn’s post-hoc test with Benjamini-Hochberg correction for multiple comparisons (****/ ***/ **/ * indicates p < 0.0001/ 0.001/ 0.01/ 0.05). For detailed information on antibiotic and bacterial species, see Supplementary Table 1. For mode of action groups, refer to Table 1. Source data are provided as a Source Data file.

As to Tridecaptin M152-P3, in assay [1], the “Steepness (Hill Coefficient)” value stood at 18.9. The “99.9% killing (10^-3)” value in assay [1] (unit not given) came to 4.73.

As for `O=c1ccc2ncc(=O)n3c2n1C[C@H]3CN1CCC(NCc2cc3c(cn2)OCCC3)CC1` [Gepotidacin], the “Relative MIC” value in assay [2] (AB-SEN (Acinetobacter baumannii ATCC 17978), evolved line 1) was found to be 64; in assay [2] (AB-SEN (Acinetobacter baumannii ATCC 17978), evolved line 2), 128; in assay [2] (AB-SEN (Acinetobacter baumannii ATCC 17978), evolved line 3), 128; in assay [2] (AB-SEN (Acinetobacter baumannii ATCC 17978), evolved line 4), 64; in assay [2] (AB-SEN (Acinetobacter baumannii ATCC 17978), evolved line 6) it was 128; in assay [2] (AB-SEN (Acinetobacter baumannii ATCC 17978), evolved line 8), 64. Moreover, the “Relative MIC” value worked out at 64 in assay [2] (AB-SEN (Acinetobacter baumannii ATCC 17978), evolved line 9); 64 in assay [2] (AB-SEN (Acinetobacter baumannii ATCC 17978), evolved line 10); 64 in assay [2] (AB-SEN, Acinetobacter baumannii ATCC 17978, evolved line 1 versus ancestor); 128 in assay [2] (AB-SEN, Acinetobacter baumannii ATCC 17978, evolved line 2 versus ancestor); 128 in assay [2] (AB-SEN, Acinetobacter baumannii ATCC 17978, evolved line 3 versus ancestor); 64 in assay [2] (AB-SEN, Acinetobacter baumannii ATCC 17978, evolved line 4 versus ancestor). In addition, the “Relative MIC” value in assay [2] (AB-SEN, Acinetobacter baumannii ATCC 17978, evolved line 6 versus ancestor) is 128; in assay [2] (AB-SEN, Acinetobacter baumannii ATCC 17978, evolved line 7 versus ancestor) it was 64; in assay [2] (AB-SEN, Acinetobacter baumannii ATCC 17978, evolved line 8 versus ancestor), 64; in assay [2] (AB-SEN, Acinetobacter baumannii ATCC 17978, evolved line 9 versus ancestor), 64; in assay [2] (AB-SEN, Acinetobacter baumannii ATCC 17978, evolved line 10 versus ancestor), 64; in assay [2] (AB-SEN, Acinetobacter baumannii ATCC 17978, evolved line 7), 64. The “Relative MIC (log10)” value in assay [2] (AB-SEN (Acinetobacter baumannii ATCC 17978), evolved line 1 adapted to the named antibiotic) was 1.806; in assay [2] (AB-SEN (Acinetobacter baumannii ATCC 17978), evolved line 4 adapted to the named antibiotic), 1.806; in assay [2] (AB-SEN (Acinetobacter baumannii ATCC 17978), evolved line 7 adapted to the named antibiotic), 1.806; in assay [2] (AB-SEN (Acinetobacter baumannii ATCC 17978), evolved line 8 adapted to the named antibiotic) it was 1.806; in assay [2] (AB-SEN (Acinetobacter baumannii ATCC 17978), evolved line 9 adapted to the named antibiotic), 1.806.
